Legend:
RNase P holoenzyme = molecular target: T1, RNase P holoenzyme (Thermotoga maritima, UniProt Q9X1H4); assay: Gel-based activity assay, bipartite pre-tRNA substrate, holoenzyme; type: biochemical, T. maritima; details: 100 mM AmOAc, 10 mM MgCl2
T1 construct: GST (cleaved yes); made in house; host or cells: E. coli BL21(DE3)pLysS
T1 sequence (Q9X1H4 1-117): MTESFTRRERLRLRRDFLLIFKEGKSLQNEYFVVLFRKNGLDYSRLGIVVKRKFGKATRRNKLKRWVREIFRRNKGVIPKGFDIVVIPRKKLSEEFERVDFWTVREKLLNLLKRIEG
Description: For gel-based activity assays, reactions were prepared as described in the previous section (fluorescence activity assay), incubated for 1–15 min at 37–50°C, then loaded onto a denaturing 7 M urea–20% acrylamide gel in the case of the Mh substrate or 19% acrylamide (40% acrylamide/bisacrylamide 38.5:1.5) for the bipartite pre-tRNA substrate. The activity conditions for the gel reported in Figure 3A, to monitor the cleavage of the holoenzyme and P RNA, were under 100 mM AmOAc and 10 mM MgCl2. The gels (13 × 16 × 0.15 cm) were electrophoresed at 20 V/cm for 2–3 h. UV shadowing or ethidium bromide staining was used to visualize RNA cleavage. Detection of minihelix fluorescence was achieved without staining using a UV lamp with excitation at ∼254 nm.
Figure 3. The inhibitors purpurin and hematein bind to the holoenzyme. (A) Top. […] Bottom. […] (B) The relative affinities of the inhibitors for the P RNA or the holoenzyme differ. Binding sensorgrams obtained by biolayer interferometry (BLI). P RNA or RNase P holoenzyme was immobilized on super streptavidin (SSA) biosensors through a 5′-biotinylated RNA oligonucleotide complementary to a region on the P1 stem of P RNA (see Materials and Methods). […] In contrast, gentian violet binds not only to P RNA but also to the Mh substrate (Supplementary Figure S16). […]

[1] = molecular target: T2, RNase P holoenzyme from T. maritima (Thermotoga maritima, UniProt Q9X1H4); assay: End-point urea-PAGE RNase P activity assay with canonical pre-tRNA substrate; type: biochemical; details: 10% DMSO
T2 construct: made in house
T2 sequence (Q9X1H4 1-117): T1 sequence (Q9X1H4 1-117)
Description: Supplementary Figure 11 . End-point urea-PAGE RNase P activity assays using a canonical pre-tRNA substrate are in agreement with the fluorescence inhibition experiments. RNase P holoenzyme from T. maritima is inhibited by the four validated hits, as observed in an 18% urea- PAGE end-point assay. RNase P holoenzyme was incubated in the presence of 10% DMSO (+) or different concentrations of compound for 30 min at 37°C. See also Supplementary Figure […]
Supplementary Figure 12. End-point urea-PAGE RNase P activity assays using a canonical pre-tRNA substrate are in agreement with the fluorescence inhibition experiments using the minihelix substrate. Compound-dependent disappearance of the pre-tRNA substrate, with a […]
biological substrate for the inhibitors (juglone and purpurin). The assays were performed under the following conditions: 66 nM RNase P holoenzyme, in a total volume of 20 µL in activity buffer (33 mM Tris, 66 mM HEPES pH 7.4, 400 mM ammonium acetate, 100 mM MgCl2) were incubated in the presence of 10% DMSO (+) or different concentrations of compound for 30 min at 37° C. Then, pre-tRNA was added to a final concentration of 1.6 µM and the reaction was incubated at 55° C for 25 min before gel loading. […]

Compound | Inhibition of the holoenzyme reaction (RNase P holoenzyme) | Inhibition of pre-tRNA cleavage (urea-PAGE end-point) [1]
O=C1C=C2CC3(O)COc4c(ccc(O)c4O)C3=C2C=C1O (stereo not shown) [Hematein, 3,4,6a,10-tetrahydroxy-6a,7-dihydroindeno[2,1-c]chromen-9(6H)-one] | inhibit the reaction catalyzed by the RNase P holoenzyme | 
O=C1C=CC(=O)c2c(O)cccc21 [Juglone, 5-hydroxy-1,4-naphthoquinone] |  | confirms the inhibition
O=C1c2ccccc2C(=O)c2c(O)c(O)cc(O)c21 [Purpurin, 1,2,4-trihydroxyanthraquinone] | inhibit the reaction catalyzed by the RNase P holoenzyme | confirms the inhibition
